# Results as given in ChEMBL document CHEMBL5113502, “Accommodation of ring C expanded deoxyvasicinone in the HDAC inhibitory pharmacophore culminates into a tractable anti-lung cancer agent and pH-responsive nanocarrier” (Eur J Med Chem, 2022).
# pIC50: −log10 of the molar value. The source made the active and inactive calls. No cut-off for these calls is given here.
# Key:
# [1] = system: NCI-H727; experiment: Cytotoxicity against human NCI-H727 cells assessed as cell viability after 48 hrs by MTT assay; assay type: functional, cell-based; settings: NCI-H727, 48 h
# [2] = system: A549; experiment: Induction of cell cycle arrest in human A549 cells assessed as accumulation at G0/G1 phase at 0.5 times IC50 after 48 hrs by flow cytometry; assay type: functional, cell-based
# [3] = system: A549; experiment: Induction of cell cycle arrest in human A549 cells assessed as accumulation at SubG1 phase at IC50 after 48 hrs by flow cytometry; assay type: functional, cell-based
# [4] = system: A549; experiment: Induction of apoptosis in human A549 cells assessed as cell shrinkage at 0.1 to 1 uM after 24 hrs by fluorescence microscopic analysis; assay type: functional, cell-based; settings: dose 0.1-1 µM
# [5] = system: A549; experiment: Induction of apoptosis in human A549 cells assessed as […] deformation at 0.1 to 1 uM after 24 hrs by fluorescence microscopic analysis; assay type: functional, cell-based; settings: dose 0.1-1 µM
# [6] = system: A549; experiment: Induction of apoptosis in human A549 cells assessed as nuclear condensation at 0.1 to 1 uM after 24 hrs by fluorescence microscopic analysis; assay type: functional, cell-based; settings: dose 0.1-1 µM
# [7] = system: A549; experiment: Induction of apoptosis in human A549 cells assessed as apoptotic bodies formation after 24 hrs by fluorescence microscopic analysis; assay type: functional, cell-based; settings: dose 0.1-1 µM, DDE = dose-dependent effect
# [8] = system: A549; experiment: Induction of autophagy in human A549 cells by acridine orange and propidium iodide staining based fluorescence microscopic analysis; assay type: functional, cell-based; settings: DDE = dose-dependent effect
# [9] = target: Histone deacetylase 2 (Homo sapiens, UniProt Q92769); experiment: Inhibition of HDAC2 (unknown origin) by colorimetric method
# [10] = target: Histone deacetylase 3 (Homo sapiens, UniProt O15379); experiment: Inhibition of HDAC3 (unknown origin) by colorimetric method
# [11] = target: Histone deacetylase 4 (Homo sapiens, UniProt P56524); experiment: Inhibition of HDAC4 (unknown origin) by colorimetric method
# [12] = target: T1, Histone deacetylase 8 (Homo sapiens, UniProt Q9BY41); experiment: Inhibition of HDAC8 (unknown origin) by colorimetric method
# T1 sequence (Q9BY41 whole entry): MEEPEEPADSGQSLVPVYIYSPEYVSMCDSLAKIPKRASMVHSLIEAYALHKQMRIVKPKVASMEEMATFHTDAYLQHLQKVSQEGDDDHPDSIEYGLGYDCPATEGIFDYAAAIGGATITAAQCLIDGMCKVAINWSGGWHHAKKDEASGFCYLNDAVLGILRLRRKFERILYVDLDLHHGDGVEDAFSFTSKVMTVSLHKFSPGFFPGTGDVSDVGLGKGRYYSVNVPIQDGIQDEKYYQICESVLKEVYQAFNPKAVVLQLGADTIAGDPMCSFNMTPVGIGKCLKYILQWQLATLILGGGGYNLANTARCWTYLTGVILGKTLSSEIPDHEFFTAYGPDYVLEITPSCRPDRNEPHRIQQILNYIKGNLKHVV
# [13] = target: Histone deacetylase 9 (Homo sapiens, UniProt Q9UKV0); experiment: Inhibition of HDAC9 (unknown origin) by colorimetric method
# [14] = species: Homo sapiens; experiment: Selectivity index, ratio of IC50 for HDAC 1 (unknown origin) to IC50 for HDAC 6 (unknown origin)
# [15] = species: Homo sapiens; experiment: Selectivity index, ratio of IC50 for HDAC 2 (unknown origin) to IC50 for HDAC 6 (unknown origin)
# [16] = species: Homo sapiens; experiment: Selectivity index, ratio of IC50 for HDAC4 (unknown origin) to IC50 for HDAC 6 (unknown origin)
# [17] = species: Homo sapiens; experiment: Selectivity index, ratio of IC50 for HDAC5 (unknown origin) to IC50 for HDAC 6 (unknown origin)
# [18] = species: Homo sapiens; experiment: Selectivity index, ratio of IC50 for HDAC7 (unknown origin) to IC50 for HDAC 6 (unknown origin)
# [19] = species: Homo sapiens; experiment: Selectivity index, ratio of IC50 for HDAC8 (unknown origin) to IC50 for HDAC 6 (unknown origin)
# [20] = species: Homo sapiens; experiment: Selectivity index, ratio of IC50 for HDAC9 (unknown origin) to IC50 for HDAC 6 (unknown origin)
# [21] = species: Homo sapiens; experiment: Selectivity index, ratio of IC50 for HDAC 1 (unknown origin) to IC50 for HDAC 3 (unknown origin)
# [22] = species: Homo sapiens; experiment: Selectivity index, ratio of IC50 for HDAC 4 (unknown origin) to IC50 for HDAC 3 (unknown origin)
# [23] = species: Homo sapiens; experiment: Selectivity index, ratio of IC50 for HDAC 5 (unknown origin) to IC50 for HDAC 3 (unknown origin)
# [24] = species: Homo sapiens; experiment: Selectivity index, ratio of IC50 for HDAC 7 (unknown origin) to IC50 for HDAC 3 (unknown origin)
# [25] = species: Homo sapiens; experiment: Selectivity index, ratio of IC50 for HDAC 8 (unknown origin) to IC50 for HDAC 3 (unknown origin)
# [26] = species: Homo sapiens; experiment: Selectivity index, ratio of IC50 for HDAC 9 (unknown origin) to IC50 for HDAC 3 (unknown origin)
# [27] = species: Homo sapiens; experiment: Selectivity index, ratio of IC50 for HDAC 3 (unknown origin) to IC50 for HDAC 1 (unknown origin)
# [28] = species: Homo sapiens; experiment: Selectivity index, ratio of IC50 for HDAC 4 (unknown origin) to IC50 for HDAC 1 (unknown origin)
# [29] = species: Homo sapiens; experiment: Selectivity index, ratio of IC50 for HDAC5 (unknown origin) to IC50 for HDAC 1 (unknown origin)
# [30] = species: Homo sapiens; experiment: Selectivity index, ratio of IC50 for HDAC6 (unknown origin) to IC50 for HDAC 1 (unknown origin)
# [31] = species: Homo sapiens; experiment: Selectivity index, ratio of IC50 for HDAC7 (unknown origin) to IC50 for HDAC 1 (unknown origin)
# [32] = species: Homo sapiens; experiment: Selectivity index, ratio of IC50 for HDAC8 (unknown origin) to IC50 for HDAC 1 (unknown origin)
# [33] = system: A549; experiment: Downregulation of HDAC1 expression in human A549 cells at 0.1 to 1 uM after 24 hrs by Western blot analysis; assay type: functional, cell-based; settings: dose 0.1-1 µM
# [34] = system: A549; experiment: Downregulation of HDAC3 expression in human A549 cells at 0.1 to 1 uM after 24 hrs by Western blot analysis; assay type: functional, cell-based; settings: dose 0.1-1 µM
# [35] = system: A549; experiment: Downregulation of HDAC6 expression in human A549 cells at 0.1 to 1 uM after 24 hrs by Western blot analysis; assay type: functional, cell-based; settings: dose 0.1-1 µM
# [36] = system: A549; experiment: Inhibition of HDAC1/HDAC3/HDAC6 in human A549 cells assessed as increase in H3 acK9 level by Western blot analysis; assay type: cell-based
# [37] = system: A549; experiment: Inhibition of HDAC1/HDAC3/HDAC6 in human A549 cells assessed as increase in alpha-tubulin-ack40 level by Western blot analysis; assay type: cell-based
# Chain of Histone deacetylase 2 (Q92769 whole entry): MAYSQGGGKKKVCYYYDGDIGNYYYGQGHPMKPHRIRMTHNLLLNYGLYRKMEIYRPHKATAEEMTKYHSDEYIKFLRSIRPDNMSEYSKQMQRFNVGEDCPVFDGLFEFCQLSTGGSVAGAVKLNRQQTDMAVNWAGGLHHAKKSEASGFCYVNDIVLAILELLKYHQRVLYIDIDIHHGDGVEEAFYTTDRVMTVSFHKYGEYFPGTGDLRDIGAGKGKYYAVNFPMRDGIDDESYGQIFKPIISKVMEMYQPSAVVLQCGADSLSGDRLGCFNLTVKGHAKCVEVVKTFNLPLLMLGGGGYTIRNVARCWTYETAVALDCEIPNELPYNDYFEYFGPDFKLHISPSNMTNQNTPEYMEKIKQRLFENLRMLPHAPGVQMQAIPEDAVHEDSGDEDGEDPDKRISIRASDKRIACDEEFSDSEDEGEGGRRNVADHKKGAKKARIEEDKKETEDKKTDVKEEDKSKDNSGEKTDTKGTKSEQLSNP
# Chain of Histone deacetylase 9 (Q9UKV0 whole entry): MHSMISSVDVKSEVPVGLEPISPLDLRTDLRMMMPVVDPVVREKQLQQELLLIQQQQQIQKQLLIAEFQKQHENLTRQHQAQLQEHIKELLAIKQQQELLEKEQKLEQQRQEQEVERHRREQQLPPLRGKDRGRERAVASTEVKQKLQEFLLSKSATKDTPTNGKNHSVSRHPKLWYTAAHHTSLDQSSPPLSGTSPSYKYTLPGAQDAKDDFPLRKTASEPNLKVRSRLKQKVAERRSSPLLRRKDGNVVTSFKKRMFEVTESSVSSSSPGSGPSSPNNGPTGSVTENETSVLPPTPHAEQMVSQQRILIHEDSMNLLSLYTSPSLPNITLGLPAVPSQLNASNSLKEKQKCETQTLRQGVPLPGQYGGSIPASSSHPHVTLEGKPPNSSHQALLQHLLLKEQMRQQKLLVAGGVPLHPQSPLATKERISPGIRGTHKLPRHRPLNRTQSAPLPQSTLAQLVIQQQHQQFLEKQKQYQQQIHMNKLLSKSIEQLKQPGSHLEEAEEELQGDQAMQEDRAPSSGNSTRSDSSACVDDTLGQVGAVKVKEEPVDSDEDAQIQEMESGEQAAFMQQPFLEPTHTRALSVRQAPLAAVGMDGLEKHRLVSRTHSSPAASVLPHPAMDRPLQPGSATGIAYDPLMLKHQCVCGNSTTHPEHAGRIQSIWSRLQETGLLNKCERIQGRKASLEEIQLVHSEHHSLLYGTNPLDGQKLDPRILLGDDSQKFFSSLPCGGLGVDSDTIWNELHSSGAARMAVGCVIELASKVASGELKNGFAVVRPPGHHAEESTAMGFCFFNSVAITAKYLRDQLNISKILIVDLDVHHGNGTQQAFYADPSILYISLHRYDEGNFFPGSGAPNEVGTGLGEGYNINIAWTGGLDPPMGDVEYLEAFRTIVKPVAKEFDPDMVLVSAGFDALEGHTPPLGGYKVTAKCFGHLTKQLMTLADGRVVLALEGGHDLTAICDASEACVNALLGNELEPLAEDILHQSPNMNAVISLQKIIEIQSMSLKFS
# Chain of Histone deacetylase 3 (O15379 whole entry): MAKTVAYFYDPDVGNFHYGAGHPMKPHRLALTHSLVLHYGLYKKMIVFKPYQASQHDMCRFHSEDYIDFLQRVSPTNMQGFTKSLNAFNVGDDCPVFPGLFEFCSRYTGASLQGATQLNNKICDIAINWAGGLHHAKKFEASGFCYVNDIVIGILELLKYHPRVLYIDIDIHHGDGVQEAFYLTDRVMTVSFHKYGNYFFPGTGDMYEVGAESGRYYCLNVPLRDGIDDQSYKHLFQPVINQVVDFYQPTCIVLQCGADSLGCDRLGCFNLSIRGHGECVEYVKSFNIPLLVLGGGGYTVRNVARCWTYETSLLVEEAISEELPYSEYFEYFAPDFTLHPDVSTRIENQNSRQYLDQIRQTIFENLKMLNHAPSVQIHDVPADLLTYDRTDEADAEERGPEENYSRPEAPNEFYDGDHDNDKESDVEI
# Chain of Histone deacetylase 4 (P56524 whole entry): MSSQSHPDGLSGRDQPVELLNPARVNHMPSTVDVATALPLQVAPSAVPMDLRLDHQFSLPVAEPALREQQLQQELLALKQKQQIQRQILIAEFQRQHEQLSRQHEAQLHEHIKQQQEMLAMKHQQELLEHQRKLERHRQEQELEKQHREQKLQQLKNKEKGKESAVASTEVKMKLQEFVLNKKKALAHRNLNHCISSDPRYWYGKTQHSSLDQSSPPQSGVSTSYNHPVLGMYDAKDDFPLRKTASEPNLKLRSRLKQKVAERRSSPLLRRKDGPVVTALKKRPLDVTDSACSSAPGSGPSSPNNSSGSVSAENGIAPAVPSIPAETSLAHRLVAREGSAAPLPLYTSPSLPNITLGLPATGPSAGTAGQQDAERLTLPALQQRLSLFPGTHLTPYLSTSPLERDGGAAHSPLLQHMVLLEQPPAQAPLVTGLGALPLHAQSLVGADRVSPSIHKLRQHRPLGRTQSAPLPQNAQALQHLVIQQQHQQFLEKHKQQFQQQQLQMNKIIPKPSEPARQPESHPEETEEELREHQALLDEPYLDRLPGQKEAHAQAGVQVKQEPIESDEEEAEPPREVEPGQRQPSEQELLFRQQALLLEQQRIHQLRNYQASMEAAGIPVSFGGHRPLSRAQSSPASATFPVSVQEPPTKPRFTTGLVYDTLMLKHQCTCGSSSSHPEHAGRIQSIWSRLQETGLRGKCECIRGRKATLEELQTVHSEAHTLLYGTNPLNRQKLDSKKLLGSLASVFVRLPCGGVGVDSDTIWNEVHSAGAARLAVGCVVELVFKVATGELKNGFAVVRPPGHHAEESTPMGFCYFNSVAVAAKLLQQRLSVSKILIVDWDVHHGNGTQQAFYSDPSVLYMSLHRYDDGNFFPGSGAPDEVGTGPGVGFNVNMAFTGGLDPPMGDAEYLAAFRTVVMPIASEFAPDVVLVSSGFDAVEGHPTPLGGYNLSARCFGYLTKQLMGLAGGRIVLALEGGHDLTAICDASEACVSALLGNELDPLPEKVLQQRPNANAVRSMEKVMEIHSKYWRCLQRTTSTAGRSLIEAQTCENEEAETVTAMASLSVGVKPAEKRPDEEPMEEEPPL
structure (smiles),measurement,setting,value
O=C(/C=C/c1ccc(CNc2ccc3nc4n(c(=O)c3c2)CCCCC4)cc1)NO,pIC50,[1],6.02
same,Activity,[2],Active
same,Activity,[3],Active
same,Activity,[4],Active
same,Activity,[5],Active
same,Activity,[6],Active
same,Activity,[7],Dde
same,Activity,[8],Dde
same,pIC50,[9],5.90
same,pIC50,[10],7.16
same,pIC50,[11],5.79
same,pIC50,[12],6.75
same,pIC50,[13],5.36
same,Ratio IC50,[14],3.86
same,Ratio IC50,[15],97.7
same,Ratio IC50,[16],126
same,Ratio IC50,[17],47.8
same,Ratio IC50,[18],316
same,Ratio IC50,[19],13.7
same,Ratio IC50,[20],335
same,Ratio IC50,[21],0.72
same,Ratio IC50,[22],23.8
same,Ratio IC50,[23],9.01
same,Ratio IC50,[24],59.6
same,Ratio IC50,[25],2
same,Ratio IC50,[26],63.1
same,Ratio IC50,[27],1.37
same,Ratio IC50,[28],32.7
same,Ratio IC50,[29],12.4
same,Ratio IC50,[30],0.25
same,Ratio IC50,[31],81.8
same,Ratio IC50,[32],3.56
same,inhibition,[33],Active
same,inhibition,[34],Active
same,inhibition,[35],Active
same,inhibition,[36],Active
same,inhibition,[37],Active
